According to article PMC11062922 (Nature Chemical Biology, 2023):

Columns and labels:
NUAK1 = target: T1, NUAK1 (Homo sapiens, UniProt O60285); test: Kinobeads two-dose competition binding: NUAK1; settings: for CATDS: target NUAK1
T1 construct: to maximize the representation of endogenous proteins; endogenous in cells
T1 sequence (O60285 1-661): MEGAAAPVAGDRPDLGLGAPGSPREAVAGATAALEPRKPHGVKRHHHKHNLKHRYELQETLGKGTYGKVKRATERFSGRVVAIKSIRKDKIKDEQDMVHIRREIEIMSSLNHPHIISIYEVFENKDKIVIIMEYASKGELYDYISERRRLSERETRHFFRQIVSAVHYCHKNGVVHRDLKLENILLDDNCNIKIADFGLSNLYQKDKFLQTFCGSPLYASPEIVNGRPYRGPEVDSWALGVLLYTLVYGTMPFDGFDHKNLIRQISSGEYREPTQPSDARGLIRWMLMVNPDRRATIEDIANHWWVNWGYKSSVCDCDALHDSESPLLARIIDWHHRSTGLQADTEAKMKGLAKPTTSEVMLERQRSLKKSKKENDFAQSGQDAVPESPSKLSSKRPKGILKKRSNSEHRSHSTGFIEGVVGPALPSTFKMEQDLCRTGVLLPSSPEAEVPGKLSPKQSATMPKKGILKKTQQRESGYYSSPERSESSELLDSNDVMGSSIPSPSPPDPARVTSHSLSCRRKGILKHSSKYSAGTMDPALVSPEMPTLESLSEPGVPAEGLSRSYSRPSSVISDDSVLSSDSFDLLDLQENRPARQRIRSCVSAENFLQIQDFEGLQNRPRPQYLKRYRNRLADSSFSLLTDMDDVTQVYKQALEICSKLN
Excerpt: Briefly, Kinobeads comprise seven broad-spectrum small molecule kinase inhibitors immobilized on Sepharose beads. […]. Compounds of interest are set to compete for target protein binding with Kinobeads in the lysate and the amount of a given protein bound to Kinobeads in the presence of a compound can be quantified relative to a dimethylsulfoxide (DMSO) vehicle control by label-free mass spectrometry. This assay measures the physical interaction of a compound with thousands of endogenous proteins in parallel and, when systematically increasing the concentration of competitor, enables the calculation of an apparent interaction constant ( Kdapp ) for each compound and protein.
Kinobeads pulldown experiments were performed as described previously[13],[14],[17] with minor modification. […] The protein concentration was adjusted to 5 mg ml^−1. Kinase inhibitors were spiked into 0.5 ml of cell lysate at final concentrations of 100 and 1,000 nM (or DMSO, 0.3, 1, 3, 10, 30, 100, 300 and 1,000 nM for full dose experiments). […] Lysates were incubated for 45 min at 4 °C. Subsequently, lysates were incubated with Kinobeads ε (17.5 µl of settled beads) for 30 min at 4 °C. To assess the degree of protein depletion from the lysates by Kinobeads, the flow through of the DMSO control was recovered for a pulldown of pulldown experiment where the lysate was incubated a second time with fresh Kinobeads. Beads were washed in three steps with buffer containing 0.4%, 0.2% and no IGEPAL. Bound proteins were reduced with 50 mM DTT in 8 M Urea, 40 mM Tris-HCl pH 7.4 for 30 min at room temperature. After alkylation with 55 mM chloroacetamide, the urea concentration was reduced to 1–2 M and proteins were digested with trypsin. Acidified peptides were desalted and concentrated using SepPak tC18 µEluation plates (Waters). Samples were frozen, dried by vacuum centrifugation and stored at −20 °C.
Each kinase inhibitor was processed together with all DMSO controls of the same plate. Additionally, each search was supplemented with five high quality DMSO controls for consistent peptide identification and protein grouping. The resultant file (proteinGroups.txt) was used for subsequent filtering, normalization, data visualization and target annotation that was automatically performed by a data processing pipeline built in house that used R (including the ‘drc’ and ‘heatmap’ packages). First, reverse hits, potential contaminants and not quantified proteins in the DMSO control samples were discarded. Protein raw and label-free quantification intensities were normalized to the median DMSO control intensity to obtain relative residual binding intensities for each protein group at every inhibitor concentration and standard deviations of the DMSO control intensity were calculated. IC50 values were estimated based on the following equation IC50=I×100−inhibition/inhibition where [I] is the inhibitor concentration that was used for IC50 calculation and ‘inhibition’ the relative residual binding intensity. […]. Estimated Kdapp values were then calculated by multiplying the estimated IC50 values with a protein-dependent correction factor that was limited to a maximum value of one. The correction factor accounts for the depletion of a target protein from the lysate by Kinobeads. The depletion can be measured by the ratio of the amount of protein captured in two consecutive pulldowns of the same DMSO control lysate. In this study, correction factors were determined in separate experiments using the same lysate mixture and the same bead batch. Correction factors were set to the median of all correction factors. Targets of kinase inhibitors were annotated using the previously published random forest classifier. A training data set was annotated manually. […]

ACOX1 = target: T2, ACOX1 (Homo sapiens, UniProt Q15067); test: Kinobeads two-dose competition binding: ACOX1;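 further: competition of compounds with immobilized broad-spectrum kinase inhibitor beads in cell lysate at 100 and 1,000 nM, 45 min at 4 °C, bead-bound protein quantified by label-free MS versus DMSO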
T2 construct: endogenous in cells
T2 sequence (Q15067 1-660): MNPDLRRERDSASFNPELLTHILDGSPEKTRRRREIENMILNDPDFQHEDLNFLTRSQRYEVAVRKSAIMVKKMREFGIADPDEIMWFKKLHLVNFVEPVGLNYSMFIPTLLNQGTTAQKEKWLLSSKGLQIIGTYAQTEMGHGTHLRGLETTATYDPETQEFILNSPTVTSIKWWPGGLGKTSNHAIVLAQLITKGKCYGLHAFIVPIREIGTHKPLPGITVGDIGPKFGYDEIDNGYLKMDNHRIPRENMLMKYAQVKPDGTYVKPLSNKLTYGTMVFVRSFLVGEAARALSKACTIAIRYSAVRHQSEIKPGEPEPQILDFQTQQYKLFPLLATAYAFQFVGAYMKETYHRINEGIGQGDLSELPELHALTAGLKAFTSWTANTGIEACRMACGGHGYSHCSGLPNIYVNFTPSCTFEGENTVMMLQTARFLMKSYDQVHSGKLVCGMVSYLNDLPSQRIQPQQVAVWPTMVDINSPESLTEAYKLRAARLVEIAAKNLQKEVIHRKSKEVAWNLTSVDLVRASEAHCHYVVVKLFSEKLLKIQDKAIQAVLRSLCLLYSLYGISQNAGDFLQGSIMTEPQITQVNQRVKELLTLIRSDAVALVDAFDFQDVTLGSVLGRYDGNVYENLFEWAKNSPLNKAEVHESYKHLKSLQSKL

[1] = sheet CATDS matrix 2, Gene Name ACOX1

| potency estimated from few doses (NUAK1; Kinobeads two-dose, Drugmatrix - all 2, read-out: apparent Kd NUAK1) [nM] | Compound | CATDS (NUAK1) | CATDS (ACOX1; [1]) | CATDS (ACOX1; target ACOX1) |
| --- | --- | --- | --- | --- |
| – | Nc1ncnc2[nH]c(-c3ccccc3)nc12 [AH5015_KCGS] | 0 | 0 | 0 |
| – | CCN1CCN(Cc2ccc(Nc3ncc(F)c(-c4cc(F)c5nc(C)n(C(C)C)c5c4)n3)nc2)CC1 [Abemaciclib] | 0 | 0 | 0 |
| – | CN(C)C/C=C/C(=O)Nc1cc2c(Nc3ccc(F)c(Cl)c3)ncnc2cc1O[C@H]1CCOC1 [Afatinib] | 0 | – | – |
| – | CCc1cc2c(cc1N1CCC(N3CCOCC3)CC1)C(C)(C)c1[nH]c3cc(C#N)ccc3c1C2=O [Alectinib] | 0 | 0 | 0 |
| – | N#CC1(c2ccc(NC(=O)c3cccnc3NCc3ccncc3)cc2)CCCC1 [Apatinib] | 0 | 0 | 0 |
| – | C#Cc1cccc(Nc2ncnc3cc(OC)c(OC4CCN(C)CC4)cc23)c1 [BI00007366] | – | 0 | – |
| > 1000 | CC(C)N1CC(=O)N(C)c2cnc(Nc3cccc(S(=O)(=O)CCN4CCOCC4)c3)nc21 [BI00009348] | – | 0 | – |
